{"source": "patent US20220031605A1", "about": "“TARGETED DRUG DELIVERY SYSTEM TO BE USED IN TREATING OSTEOMYELITIS” (EGE UNIVERSITESI, priority 2018, published 2022)", "test_system": "Staphylococcus Aureus", "test": "In vivo osteomyelitis model (Staphylococcus Aureus injected to proximal tibia), radiograph and hematological analysis", "design": "species or system Wistar albino rats", "conditions": "rat osteomyelitis model", "protocol": "Wistar albino rats were operated on, and osteomyelitis model was established by injecting Staphylococcus Aureus pathogen to the proximal tibia. In order to determined that the osteomyelitis model was formed, Xray (Radiograph) image was taken. The animals that were determined to have osteomyelitis, were separated into 3 groups, as the gelatin nanoparticle comprising gentamicin (I), free drug (II) and control (III) groups, and they were included in the treatment with 2-4 injections a weak. 100-300 μl, gelatin nanoparticle comprising gentamicin, free form (commercial gentamicin and physiological saline solution was injected intravenously into the tail vein of the groups I, II, and III respectively. On the 14th day following the commencement of treatment, a radiograph was taken in order to track the treatment process. Hematological analysis was carried out during the treatment and after the treatment. The lymphocyte reference range for rats was 1.4-9.4×10^3/μL. As a result of the haemogram carried out on healthy rats, the lymphocyte value was 7.4×10^3/μL."}
{"substance": "gentamicin [Free gentamicin]", "values": [{"measurement": "Lymphocyte number following 6 dose stherapy", "setting": "intravenous, tail vein, after 6 doses, reference range 1.4-9.4, healthy rats 7.4", "result": "12.6 10^3/μL"}, {"measurement": "Radiograph finding after therapy", "setting": "radiograph following 6 doses of therapy, compared with image 14 days after model establishment", "result": "abscess was present, bone integrity was not yet formed and healing was only present on the periost"}]}
